Assays:
LRRK2 wild-type [1] = biological target: T1, LRRK2 wild-type (Homo sapiens, UniProt Q5S007); assay: TR-FRET cellular assay for LRRK2 Ser935 phosphorylation, HEK293T cells, BacMam LRRK2-GFP wild-type; design: This high-throughput assay utilizes cells expressing full-length human LRRK2 with a C-terminal GFP tag (LRRK2-GFP); host or cells: HEK293T cells transduced with BacMam; details: WT, +/- SD, three independent experiments, * = partial inhibition, read-out: IC50, TR-FRET cell-based assay for Ser935 phosphorylation of LRRK2
Method: (§1) U-2 OS cells are maintained in growth medium (McCoy’s 5A supplemented with 10% dialyzed FBS (dFBS), 10 mM HEPES, 0.1 mM NEAA, 1 mM Sodium Pyruvate, and 100 U/mL Penicillin/100 µg/mL Streptomycin). HEK293T cells are maintained in DMEM with 10% dFBS, 10 mM HEPES, 0.1 mM NEAA and 100 U/mL Penicillin/100 µg/mL Streptomycin. SH-SY5Y cells are maintained in DMEM/F-12 medium supplemented with 10% dFBS and 100 U/mL Penicillin/100 µg/mL Streptomycin. […] GIBCO® human neural stem cells (hNSCs) were propagated as an adherent culture in StemPro® NSC SFM according to the manufacturer’s recommended protocol (Life Technologies). For BacMam transduction of U-2 OS and HEK293T, cells were harvested, mixed with various amounts of BacMam LRRK2-GFP reagent (v/v) and plated onto 6-well plates. […] Cells were assayed in 384-well format (∼20,000 cells/well) 48 hours post-transduction as above.
(§2) Transduced cells in the 384-well assay plate were incubated with indicated inhibitors (5X, 5 µL/well) for 60 to 90 minutes. During this time, 6 X lysis buffer (Life Technologies) was supplemented with 30 nM Tb-labeled anti-LRRK2 pSer935 antibody and both protease and phosphatase inhibitor cocktails (Sigma). The complete 6 X lysis buffer was added to each well (5 µL/well) and the plates were incubated at room temperature in the dark for 2 hours. […] A sigmoidal dose-response equation with varying slope was used to fit the data and generate IC50 values. Z′-factor values were calculated as: Z′-factor = 1 - [(3 × stdevno virus +3 × stdevmaxvirus)/(avgmaxvirus – avgno-virus)]. The IC50 values reported in Table 1 are the averaged numbers from three independent experiments.

LRRK2 wild-type [2] = biological target: T1, LRRK2 wild-type; assay: TR-FRET cellular assay for LRRK2 Ser935 phosphorylation, U-2 OS cells, BacMam LRRK2-GFP wild-type; assay type: cell-based; design: This high-throughput assay utilizes cells expressing full-length human LRRK2 with a C-terminal GFP tag (LRRK2-GFP); host or cells: U-2 OS cells transduced with BacMam; details: WT, +/- SD, three independent experiments, * = partial inhibition, read-out: IC50, TR-FRET cell-based assay for Ser935 phosphorylation of LRRK2
Method: as §1, §2

LRRK2 G2019S [3] = biological target: T2, LRRK2 G2019S (Homo sapiens, UniProt Q5S007, G2019S); assay: TR-FRET cellular assay for LRRK2 Ser935 phosphorylation, HEK293T cells, BacMam LRRK2-GFP G2019S; design: This high-throughput assay utilizes cells expressing full-length human LRRK2 with a C-terminal GFP tag (LRRK2-GFP); host or cells: HEK293T cells transduced with BacMam; details: +/- SD, three independent experiments, * = partial inhibition, read-out: IC50, TR-FRET cell-based assay for Ser935 phosphorylation of LRRK2
Method: as §1, §2

LRRK2 G2019S [4] = biological target: T2, LRRK2 G2019S; assay: TR-FRET cellular assay for LRRK2 Ser935 phosphorylation, U-2 OS cells, BacMam LRRK2-GFP G2019S; assay type: cell-based; design: This high-throughput assay utilizes cells expressing full-length human LRRK2 with a C-terminal GFP tag (LRRK2-GFP); host or cells: U-2 OS, SH-SY5Y, HEK293T cells or human neural stem cells transduced with BacMam; details: G2019S, +/- SD, three independent experiments, * = partial inhibition, read-out: IC50, TR-FRET cell-based assay for Ser935 phosphorylation of LRRK2
Method: as §1, §2

LRRK2 wild-type [5] = biological target: T1, LRRK2 wild-type; assay: TR-FRET cellular assay for LRRK2 Ser935 phosphorylation, SH-SY5Y cells, BacMam LRRK2-GFP wild-type; assay type: cell-based; design: This high-throughput assay utilizes cells expressing full-length human LRRK2 with a C-terminal GFP tag (LRRK2-GFP); host or cells: SH-SY5Y cells transduced with BacMam; details: WT, +/- SD, three independent experiments, * = partial inhibition, read-out: IC50, TR-FRET cell-based assay for Ser935 phosphorylation of LRRK2
Method: as §1, §2

LRRK2 G2019S [6] = biological target: T2, LRRK2 G2019S; assay: TR-FRET cellular assay for LRRK2 Ser935 phosphorylation, SH-SY5Y cells, BacMam LRRK2-GFP G2019S (incl. Tocriscreen Mini library screen and follow-up); assay type: cell-based; design: This high-throughput assay utilizes cells expressing full-length human LRRK2 with a C-terminal GFP tag (LRRK2-GFP); host or cells: SH-SY5Y cells transduced with BacMam; details: for IC50: three independent experiments
Method: as §1, §2
40 nL of 10 mM Tocris library compounds in DMSO were dispensed into each well of the assay plate by the ECHO system. Equal volumes of DMSO were dispensed into the control wells. Cells were incubated with compounds for 90 to 120 min prior to cell lysis and detection as described above. The percent inhibition is calculated as: [(average emission ratios of DMSO control wells – average emission ratios of compound wells)/(average emission ratios of DMSO control wells – average emission ratios of LRRK2-IN-1 treated wells)] * 100. For the dose-response follow-up studies, fresh compound DMSO stock solutions were prepared from powder. […] Z′-factor value was calculated as: Z′-factor = 1 - [(3 × stdevLRRK2-IN-1+3 × stdevDMSO)/(avgDMSO – avgLRRK2-IN-1)]. The IC50 values reported in Table 2 are the averaged numbers from three independent experiments for both cellular and biochemical TR-FRET assays and one representative result of two independent experiments for the cytotoxicity assay.

LRRK2 G2019S [7] = biological target: T2, LRRK2 G2019S; assay: In vitro biochemical LRRK2 TR-FRET activity assay; details: LRRK2 G2019S, ATP 134 µM (Km,app), LRRKtide substrate, three independent experiments; read-out: Biochemical LRRK2 assay IC50 +/- SD
Method: The Biochemical LRRK2 TR-FRET activity assay was performed according to the manufacture recommended assay protocol (Life Technologies). […] After incubation at room temperature for 1 hour, the kinase reactions were stopped by addition of 10 µL of 20 mM EDTA and 4 nM Tb-anti-pERM (pLRRKtide) antibody in TR-FRET dilution buffer (Life Technologies). After a 30 minute incubation at room temperature, TR-FRET measurements were obtained on a BMG PHERAstar plate reader using LanthaScreen® filters and settings. A 16 point, 2-fold dilution series of each compound was tested in triplicate at each concentration and assays were also performed in triplicate.

[8] = Cytotoxicity assay (resazurin-based cell viability); details: human
GFP-LRRK2 G2019S = biological target: T3, GFP-LRRK2 G2019S (Homo sapiens, UniProt Q5S007, G2019S); assay: Immunoprecipitation/Western analysis of LRRK2 phosphorylation at Ser910, Ser935, Ser955, Ser973 in HEK293 T-REx GFP-LRRK2 G2019S cells; assay type: cell-based; details: 20 µM, 90 min, HEK293 GFP-LRRK2 G2019S, Figure 6
T3 construct: expressed in transfected cells
Method: Immunoblot analysis: BacMam LRRK2-GFP transduced U-2 OS or SH-SY5Y cells (10^7 cells) were left untreated or treated with 3 µM LRRK2-IN-I for 90 min. For lysate preparation, the cells were washed once with ice-cold PBS and lysed by addition of ice-cold lysis buffer (20 mM Tris-HCl, pH 7.4, 1% NP-40, 5 mM EDTA, 5 mM NaF, 150 mM NaCl, and 1∶100 of protease and phosphatase inhibitor cocktails). The lysate was cleared of debris by centrifugation. Equal amount of total protein was loaded onto each lane for SDS-PAGE (3–8% Tris Acetate). The proteins were transferred onto nitrocellulose membrane using the iBLOT® dry blotting system (Life Technologies) according to manufacturer’s protocol. The membranes were blocked and incubated with a primary antibody against LRRK2 (Cell Signaling Technologies), followed by incubation with alkaline phosphatase-conjugated secondary antibody (WesternBreeze® chromogenic Kit, Life Technologies). The blot was developed by using the chromogenic BCIP/NBT substrate (WesternBreeze® chromogenic Kit, Life Technologies). […] Two days post induction, cells were treated for 90 minutes in the presence of 20 µM of compound or DMSO vehicle control. Cells were rapidly lysed in ice cold lysis buffer 50 mM Tris/HCl, pH 7.5, 1 mM EGTA, 1 mM EDTA, […] 1 mM sodium orthovanadate, 10 mM sodium beta-glycerolphosphate, 50 mM NaF, 5 mM sodium pyrophosphate, 0.27 M sucrose, 1 mM benzamidine and 2 mM phenylmethanesulphonylfluoride (PMSF) and one tablet each complete protease inhibitor and PhosSTOP phosphatase inhibitor (Roche) and was supplemented with 1% (v/v) Triton X-100. GFP-LRRK2 was immunoprecipitated with GFP nanotrap beads (ChromoTek). Immunecomplexes were washed twice with lysis buffer supplemented with 300 mM NaCl and once with Buffer A (50 mM Tris/HCl, pH 7.5, 50 mM NaCl, 0.1 mM EGTA and 0.1% (v/v) 2-mercaptoethanol, and 0.27 M sucrose).

[9] = SH-SY5Y, G2019S, +/- SD, * = partial inhibition, read-out: IC50, TR-FRET cell-based assay for Ser935 phosphorylation of LRRK2

T2 sequence (Q5S007 whole entry G2019S): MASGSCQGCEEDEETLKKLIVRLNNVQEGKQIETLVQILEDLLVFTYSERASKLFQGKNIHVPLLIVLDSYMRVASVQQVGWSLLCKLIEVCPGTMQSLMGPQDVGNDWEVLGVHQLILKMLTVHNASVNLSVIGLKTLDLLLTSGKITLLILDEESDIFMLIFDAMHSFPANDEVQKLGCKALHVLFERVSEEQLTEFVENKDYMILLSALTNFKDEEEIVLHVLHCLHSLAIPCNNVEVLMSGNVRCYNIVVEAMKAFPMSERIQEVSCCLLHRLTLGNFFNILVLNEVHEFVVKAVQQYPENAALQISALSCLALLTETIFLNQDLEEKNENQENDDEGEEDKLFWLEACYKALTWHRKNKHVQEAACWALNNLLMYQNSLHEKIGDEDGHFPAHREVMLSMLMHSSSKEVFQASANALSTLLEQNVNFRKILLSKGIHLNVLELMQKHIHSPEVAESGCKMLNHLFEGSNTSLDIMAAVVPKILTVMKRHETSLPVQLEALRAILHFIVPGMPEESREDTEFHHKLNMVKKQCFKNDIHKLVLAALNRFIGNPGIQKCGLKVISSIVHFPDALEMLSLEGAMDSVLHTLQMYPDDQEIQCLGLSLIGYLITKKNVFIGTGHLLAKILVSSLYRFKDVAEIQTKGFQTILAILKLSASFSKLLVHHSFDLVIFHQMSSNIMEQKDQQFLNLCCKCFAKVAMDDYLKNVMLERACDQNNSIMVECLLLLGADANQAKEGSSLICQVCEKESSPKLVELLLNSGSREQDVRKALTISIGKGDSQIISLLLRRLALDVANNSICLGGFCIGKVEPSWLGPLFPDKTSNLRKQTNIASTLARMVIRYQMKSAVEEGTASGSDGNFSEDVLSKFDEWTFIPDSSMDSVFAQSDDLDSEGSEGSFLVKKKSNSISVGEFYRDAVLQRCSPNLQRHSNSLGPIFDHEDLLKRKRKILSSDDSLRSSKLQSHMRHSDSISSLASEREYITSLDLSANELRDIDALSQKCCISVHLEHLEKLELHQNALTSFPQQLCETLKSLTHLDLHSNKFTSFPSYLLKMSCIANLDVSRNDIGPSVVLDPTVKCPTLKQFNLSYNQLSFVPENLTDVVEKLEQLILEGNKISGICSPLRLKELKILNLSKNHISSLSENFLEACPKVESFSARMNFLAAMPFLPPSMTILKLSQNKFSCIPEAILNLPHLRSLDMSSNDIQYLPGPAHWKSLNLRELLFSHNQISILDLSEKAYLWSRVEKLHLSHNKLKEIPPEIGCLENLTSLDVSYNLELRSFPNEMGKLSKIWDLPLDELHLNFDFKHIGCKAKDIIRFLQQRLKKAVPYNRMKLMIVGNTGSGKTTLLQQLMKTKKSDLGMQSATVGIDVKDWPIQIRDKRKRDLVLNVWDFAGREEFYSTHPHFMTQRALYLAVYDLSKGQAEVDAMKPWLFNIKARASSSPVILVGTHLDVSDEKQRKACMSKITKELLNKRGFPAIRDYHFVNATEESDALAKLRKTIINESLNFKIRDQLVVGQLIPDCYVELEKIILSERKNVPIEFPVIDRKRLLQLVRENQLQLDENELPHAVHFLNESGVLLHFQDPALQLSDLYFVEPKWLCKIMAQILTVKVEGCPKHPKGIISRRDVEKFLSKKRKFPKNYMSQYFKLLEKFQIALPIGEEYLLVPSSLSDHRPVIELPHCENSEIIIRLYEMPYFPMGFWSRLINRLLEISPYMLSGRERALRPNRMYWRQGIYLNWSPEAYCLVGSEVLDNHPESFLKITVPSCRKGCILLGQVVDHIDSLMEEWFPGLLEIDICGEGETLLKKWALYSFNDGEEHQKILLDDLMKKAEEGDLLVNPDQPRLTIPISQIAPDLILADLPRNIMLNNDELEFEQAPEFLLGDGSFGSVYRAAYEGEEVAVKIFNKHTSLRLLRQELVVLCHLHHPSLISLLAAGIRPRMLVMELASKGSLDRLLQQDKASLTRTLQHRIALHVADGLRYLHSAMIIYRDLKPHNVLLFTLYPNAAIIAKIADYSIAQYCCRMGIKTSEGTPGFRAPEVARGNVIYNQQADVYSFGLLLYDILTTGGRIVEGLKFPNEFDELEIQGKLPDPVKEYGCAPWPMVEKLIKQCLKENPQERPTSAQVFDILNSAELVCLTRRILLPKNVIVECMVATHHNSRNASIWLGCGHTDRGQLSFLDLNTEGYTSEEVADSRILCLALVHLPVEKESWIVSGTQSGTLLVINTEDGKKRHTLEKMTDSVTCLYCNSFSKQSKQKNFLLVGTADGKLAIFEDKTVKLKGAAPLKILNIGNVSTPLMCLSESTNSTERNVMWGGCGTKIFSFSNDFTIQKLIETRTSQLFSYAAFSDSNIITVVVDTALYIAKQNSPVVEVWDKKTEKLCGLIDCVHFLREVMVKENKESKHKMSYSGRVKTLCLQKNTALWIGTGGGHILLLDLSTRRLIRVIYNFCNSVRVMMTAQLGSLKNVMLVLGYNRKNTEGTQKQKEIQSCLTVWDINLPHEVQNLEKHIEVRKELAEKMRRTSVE
T1 sequence (Q5S007 whole entry): as the sequence (Q5S007 whole entry G2019S) above, with S2019G counted along it
T3 sequence (Q5S007 whole entry G2019S): as the sequence (Q5S007 whole entry G2019S) above

Row | SMILES | IC50 (LRRK2 wild-type [1]) [nM] | IC50 (LRRK2 wild-type [2]) [nM] | IC50 (LRRK2 G2019S [3]) [nM] | IC50 (LRRK2 G2019S [4]) [nM] | IC50 (LRRK2 wild-type [5]) [nM] | IC50 (LRRK2 G2019S [6]; [9]) [nM] | IC50 (LRRK2 G2019S [7]) [nM] | IC50 [8] [nM] | effect on phosphorylation of Ser910, Ser935, Ser955 and Ser973 (IP-Western) (GFP-LRRK2 G2019S) | inhibition at 20 µM (LRRK2 G2019S [6]; SH-SY5Y, Tocriscreen Mini library screen, 20 µM, SH-SY5Y G2019S, relative to LRRK2-IN-1 control, read-out: %Inhibition Initial screen) [%] | %Inhibition Initial screen (LRRK2 G2019S [6]; Tocriscreen Mini library screen, 20 µM, SH-SY5Y G2019S, relative to LRRK2-IN-1 control) [%] | Cellular TR-FRET Assay Max % Inhibition (LRRK2 G2019S [6]; dose-response follow-up, SH-SY5Y G2019S, 90 min) [%] | IC50 (LRRK2 G2019S [6]; dose-response follow-up, SH-SY5Y G2019S, read-out: Cellular TR-FRET Assay IC50 +/-SD) [nM]
1 | O=C1Nc2ccc(I)cc2/C1=C/c1cc(Br)c(O)c(Br)c1 [GW5074] | > 20000 | > 20000 | 280 | 470 | > 20000 | > 20000 | – | – | – | – | – | – | –
2 | Oc1c2ccccc2c2c3c(cccc13)N=N2 [SP 600125] | – | – | – | – | – | – | 220 | > 20000 | inhibited phosphorylation of Ser910, Ser935, Ser955 and Ser973 | 88 | 88.3 | 103 | 1000
3 | Cc1cncc2cccc(S(=O)(=O)N3CCCNC[C@@H]3C)c12 [H-1152] | 2940 | 3280 | 1380 | 890 | 1660 | 770 | – | – | – | – | – | – | –

— paper PMC3429506, “Screening for Novel LRRK2 Inhibitors Using a High-Throughput TR-FRET Cellular Assay for LRRK2 Ser935 Phosphorylation” (PLoS ONE, 2012)
